Laboratory results taken from article PMC10601815, “αβ,α′β′-Diepoxyketones are mechanism-based inhibitors of nucleophilic cysteine enzymes” (Chemical Communications (Cambridge, England), 2023).
Several values for one entry are separate records, joined by “and”; a condition that tells them apart may be missing. Identical values can stand only once. Like-named read-outs stand apart in the source and are kept apart here.

Legend:
LdtMt2 [1] = molecular target: T1, LdtMt2 (Mycobacterium tuberculosis, UniProt I6Y9J2); assay type: binding
T1 sequence (I6Y9J2 56-408): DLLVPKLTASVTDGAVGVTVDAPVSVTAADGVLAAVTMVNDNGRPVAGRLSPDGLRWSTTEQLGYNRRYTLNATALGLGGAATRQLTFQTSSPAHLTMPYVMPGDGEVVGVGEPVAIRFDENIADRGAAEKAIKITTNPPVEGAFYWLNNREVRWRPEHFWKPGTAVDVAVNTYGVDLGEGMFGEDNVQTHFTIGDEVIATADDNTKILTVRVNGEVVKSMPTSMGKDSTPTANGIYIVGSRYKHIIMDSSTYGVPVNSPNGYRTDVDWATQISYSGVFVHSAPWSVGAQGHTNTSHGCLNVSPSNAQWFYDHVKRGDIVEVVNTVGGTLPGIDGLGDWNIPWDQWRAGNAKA

LdtMt2 [2] = molecular target: T1, LdtMt2; assay: biochemical
[3] = for kchem (kinetic rate constant for reactivity with GSH): 500 nM L-glutathione, 10 µM Probe 1, pH 7.2; for half-life (t1/2) of reaction with GSH: buffer
LdtMt2 [4] = molecular target: T1, LdtMt2; assay: biochemical; conditions: for IC50: read-out: pIC50 LdtMt2 (converted)
[5] = 1 µM LdtMt2, inhibitor 20 µM (100 µM for 12), rt, 15 min
[6] = 1 µM LdtMt2, inhibitor 20 µM (100 µM for 12), rt, 24 h

Structure (SMILES): COc1ccccc1C1OC1C(=O)C1OC1c1ccccc1OC (mixture of isomers) [DEK 5]
- Area (%) 15 min, adduct with assignment N.D. (+309 Da for 5, +80 Da for 8 and 9) (LdtMt2 [1]): 0.0%
- Area (%) 15 min, assignment Dha (-34 Da) (LdtMt2 [1]): 0.0%
- Area (%) 15 min, assignment Retro-aldol fragment (3) (LdtMt2 [1]): 9.0%
- Area (%) 15 min, assignment Unassigned fragment / Fragment II (+56/+57 Da) (LdtMt2 [1]): 0.0%
- Area (%) 15 min, assignment Unfragmented (2) (LdtMt2 [1]): 77.9%
- Area (%) 15 min, assignment Unmodified LdtMt2 (LdtMt2 [1]): 2.5%
- Area (%) 24 h, adduct with assignment N.D. (+309 Da for 5, +80 Da for 8 and 9) (LdtMt2 [1]): 4.22%
- Area (%) 24 h, assignment Dha (-34 Da) (LdtMt2 [1]): ~30% and 30.4%
- Area (%) 24 h, assignment Retro-aldol fragment (3) (LdtMt2 [1]): 39.6%
- Area (%) 24 h, assignment Unfragmented (2) (LdtMt2 [1]): 0.0%
- Area (%) 24 h, assignment Unmodified LdtMt2 (LdtMt2 [1]): 0.0%
- kinact/KI LdtMt2 (LdtMt2 [2]): 61.1 ± 2.78 M⁻¹ s⁻¹
- kchem (kinetic rate constant for reactivity with GSH) [3]: < 0.8 M⁻¹ s⁻¹

Structure (SMILES): Cc1cccc(C)c1C1OC1C(=O)C1OC1c1c(C)cccc1C (mixture of isomers) [DEK 8]
- Area (%) 15 min, adduct with assignment N.D. (+309 Da for 5, +80 Da for 8 and 9) (LdtMt2 [1]): 0.0%
- Area (%) 15 min, assignment Retro-aldol fragment (3) (LdtMt2 [1]): 0.0%
- Area (%) 15 min, assignment Unmodified LdtMt2 (LdtMt2 [1]): 100.0%
- Area (%) 24 h, adduct with assignment N.D. (+309 Da for 5, +80 Da for 8 and 9) (LdtMt2 [1]): 14.9%
- Area (%) 24 h, assignment Retro-aldol fragment (3) (LdtMt2 [1]): 16.3%
- Area (%) 24 h, assignment Unmodified LdtMt2 (LdtMt2 [1]): 68.8%
- inhibition of LdtMt2 in the kinact/KI determination (in words) (LdtMt2 [2]): no evidence for inhibition
- kinact/KI LdtMt2 (LdtMt2 [2]): < 10.0 M⁻¹ s⁻¹
- kchem (kinetic rate constant for reactivity with GSH) [3]: 1.11 ± 0.20 M⁻¹ s⁻¹ and 1.1 ± 0.2 M⁻¹ s⁻¹
- half-life (t1/2) of reaction with GSH [3]: 38 min

Structure (SMILES): O=C(C1OC1c1ccccc1)C1OC1c1ccccc1 (mixture of isomers) [diastereomeric mixture of 1]
- pIC50 LdtMt2 (LdtMt2 [4]): 5.59 ± 0.036 and 5.6 ± 0.04

Structure (SMILES): O=C(c1ccccc1)C1OC1c1ccccc1 (racemic) [Epoxide 12, reference compound]
- inhibition of LdtMt2 in dose-response assays (in words) (LdtMt2 [4]): did not manifest inhibition
- pIC50 LdtMt2 (LdtMt2 [4]): < 4.4
- Area (%) 15 min, assignment Retro-aldol fragment (3) (LdtMt2 [1]): 0.0%
- Area (%) 15 min, assignment Unfragmented (2) (LdtMt2 [1]): 8.6%
- Area (%) 15 min, assignment Unmodified LdtMt2 (LdtMt2 [1]): 91.4%
- Area (%) 24 h, assignment Retro-aldol fragment (3) (LdtMt2 [1]): 87.2%
- Area (%) 24 h, assignment Unfragmented (2) (LdtMt2 [1]): 0.0%
- Area (%) 24 h, assignment Unmodified LdtMt2 (LdtMt2 [1]): 12.8%
- covalent reaction with LdtMt2 (in words) (LdtMt2 [1]): evidenced covalent reaction

Structure (SMILES): Cc1cc(C)cc([C@@H]2O[C@H]2C(=O)[C@@H]2O[C@H]2c2cc(C)cc(C)c2)c1 (relative stereo) [DEK 7]
- Area (%) 15 min, assignment Dha (-34 Da) (LdtMt2 [1]): 0.0%
- Area (%) 15 min, assignment Retro-aldol fragment (3) (LdtMt2 [1]): 43.7%
- Area (%) 15 min, assignment Unassigned fragment / Fragment II (+56/+57 Da) (LdtMt2 [1]): 0.0%
- Area (%) 15 min, assignment Unfragmented (2) (LdtMt2 [1]): 44.8%
- Area (%) 15 min, assignment Unmodified LdtMt2 (LdtMt2 [1]): 11.5%
- Area (%) 24 h, assignment Dha (-34 Da) (LdtMt2 [1]): ~16% and 16.2%
- Area (%) 24 h, assignment Retro-aldol fragment (3) (LdtMt2 [1]): 70.3%
- Area (%) 24 h, assignment Unfragmented (2) (LdtMt2 [1]): 0.0%
- Area (%) 24 h, assignment Unmodified LdtMt2 (LdtMt2 [1]): 0.0%
- kinact/KI LdtMt2 (LdtMt2 [2]): 80.9 ± 6.74 M⁻¹ s⁻¹
- kchem (kinetic rate constant for reactivity with GSH) [3]: 1.71 ± 0.24 M⁻¹ s⁻¹ and 1.7 ± 0.2 M⁻¹ s⁻¹
- half-life (t1/2) of reaction with GSH [3]: 24 min

Structure (SMILES): O=C([C@H]1O[C@@H]1c1ccccc1)[C@@H]1O[C@H]1c1ccccc1 [DEK 1]
- IC50 (LdtMt2 [4]; 15 min preincubation, 100 nM LdtMt2, 25 µM Probe 1, n=4): 617 nM and 631 nM
- IC50 (LdtMt2 [4]; 30 min pre-incubation): 63.1 nM
- IC50 (LdtMt2 [4]; Table S3, 10 min pre-incubation, 100 nM LdtMt2, 25 µM Probe 1): 1000 nM
- Area (%) 15 min, assignment Dha (-34 Da) (LdtMt2 [1]; [5]): 0.0%
- Area (%) 15 min, assignment Retro-aldol fragment (3) (LdtMt2 [1]; [5]): 23.3%
- Area (%) 15 min, assignment Unfragmented (2) (LdtMt2 [1]; [5]): 74.7%
- Area (%) 15 min, assignment Unmodified LdtMt2 (LdtMt2 [1]; [5]): 2.0%
- Area (%) 24 h, assignment Dha (-34 Da) (LdtMt2 [1]; [6]): ~5% and 5.0%
- Area (%) 24 h, assignment Retro-aldol fragment (3) (LdtMt2 [1]; [6]): 82.0%
- Area (%) 24 h, assignment Unfragmented (2) (LdtMt2 [1]; [6]): 7.2%
- Area (%) 24 h, assignment Unmodified LdtMt2 (LdtMt2 [1]; [6]): 0.0%
- Area (%) 15 min, assignment Unassigned fragment / Fragment II (+56/+57 Da) (LdtMt2 [1]; 1 µM LdtMt2, inhibitor 20 µM, rt, 15 min): 0.0%
- covalent reaction with LdtMt2 (in words) (LdtMt2 [1]; 1 µM LdtMt2, inhibitor 20 µM (100 µM for 12)): covalently reacts with LdtMt2
- time for conversion of the initial adduct (2, +267 Da) into the +160 Da adduct (3) (LdtMt2 [1]; 1 (20 µM), LdtMt2 (1 µM)): ≤ 2 h
- kinact/KI (LdtMt2 [2]; 100 nM LdtMt2, 10 µM Probe 1, 3.5 h): 484 ± 28.4 M⁻¹ s⁻¹
- kchem (kinetic rate constant for reactivity with GSH) [3]: < 0.8 M⁻¹ s⁻¹

Structure (SMILES): O=C(C1OC1c1ccc(OC(F)(F)F)cc1)C1OC1c1ccc(OC(F)(F)F)cc1 (stereo not shown) [DEK 4]
- Area (%) 15 min, assignment Dha (-34 Da) (LdtMt2 [1]): 0.0%
- Area (%) 15 min, assignment Retro-aldol fragment (3) (LdtMt2 [1]): 18.1%
- Area (%) 15 min, assignment Unfragmented (2) (LdtMt2 [1]): 5.41%
- Area (%) 15 min, assignment Unmodified LdtMt2 (LdtMt2 [1]): 76.5%
- Area (%) 24 h, assignment Dha (-34 Da) (LdtMt2 [1]): ~2.5% and 2.4%
- Area (%) 24 h, assignment Retro-aldol fragment (3) (LdtMt2 [1]): 97.6%
- Area (%) 24 h, assignment Unfragmented (2) (LdtMt2 [1]): 0.0%
- Area (%) 24 h, assignment Unmodified LdtMt2 (LdtMt2 [1]): 0.0%
- inhibition of LdtMt2 in the kinact/KI determination (in words) (LdtMt2 [2]): no evidence for inhibition
- kinact/KI LdtMt2 (LdtMt2 [2]): < 10.0 M⁻¹ s⁻¹
- kchem (kinetic rate constant for reactivity with GSH) [3]: < 0.8 M⁻¹ s⁻¹

Structure (SMILES): O=C(C1OC1c1ccccc1OC(F)(F)F)C1OC1c1ccccc1OC(F)(F)F (stereo not shown) [DEK 6]
- Area (%) 15 min, assignment Retro-aldol fragment (3) (LdtMt2 [1]): 11.6%
- Area (%) 15 min, assignment Unassigned fragment / Fragment II (+56/+57 Da) (LdtMt2 [1]): 0.0%
- Area (%) 15 min, assignment Unfragmented (2) (LdtMt2 [1]): 81.2%
- Area (%) 15 min, assignment Unmodified LdtMt2 (LdtMt2 [1]): 7.2%
- Area (%) 24 h, assignment Dha (-34 Da) (LdtMt2 [1]): no evidence for Dha formation
- Area (%) 24 h, assignment Retro-aldol fragment (3) (LdtMt2 [1]): 93.2%
- Area (%) 24 h, assignment Unfragmented (2) (LdtMt2 [1]): 0.0%
- Area (%) 24 h, assignment Unmodified LdtMt2 (LdtMt2 [1]): 2.6%
- kinact/KI LdtMt2 (LdtMt2 [2]): 140.6 ± 17.1 M⁻¹ s⁻¹
- kchem (kinetic rate constant for reactivity with GSH) [3]: < 0.8 M⁻¹ s⁻¹

Structure (SMILES): O=C1C2(CCC13OC3c1ccccc1)OC2c1ccccc1 (stereo not shown) [DEK 9]
- Area (%) 15 min, adduct with assignment N.D. (+309 Da for 5, +80 Da for 8 and 9) (LdtMt2 [1]): 6.9%
- Area (%) 15 min, assignment Retro-aldol fragment (3) (LdtMt2 [1]): 68.8%
- Area (%) 15 min, assignment Unfragmented (2) (LdtMt2 [1]): 21.0%
- Area (%) 15 min, assignment Unmodified LdtMt2 (LdtMt2 [1]): 3.3%
- Area (%) 24 h, adduct with assignment N.D. (+309 Da for 5, +80 Da for 8 and 9) (LdtMt2 [1]): 9.1%
- Area (%) 24 h, assignment Retro-aldol fragment (3) (LdtMt2 [1]): 90.9%
- Area (%) 24 h, assignment Unfragmented (2) (LdtMt2 [1]): 0.0%
- Area (%) 24 h, assignment Unmodified LdtMt2 (LdtMt2 [1]): 0.0%
- kinact/KI LdtMt2 (LdtMt2 [2]): 25.8 ± 1.41 M⁻¹ s⁻¹
- kchem (kinetic rate constant for reactivity with GSH) [3]: < 0.8 M⁻¹ s⁻¹

Structure (SMILES): O=C1C2(CCCC13OC3c1ccccc1)OC2c1ccccc1 (stereo not shown) [DEK 10]
- pIC50 LdtMt2 (LdtMt2 [4]): < 4.4
- Area (%) 15 min, assignment Unfragmented (2) (LdtMt2 [1]): 0.0%
- Area (%) 15 min, assignment Unmodified LdtMt2 (LdtMt2 [1]): 100.0%
- Area (%) 24 h, assignment Unfragmented (2) (LdtMt2 [1]): 9.8%
- Area (%) 24 h, assignment Unmodified LdtMt2 (LdtMt2 [1]): 90.2%
- inhibition of LdtMt2 in the kinact/KI determination (in words) (LdtMt2 [2]): no evidence for inhibition
- kinact/KI LdtMt2 (LdtMt2 [2]): < 10.0 M⁻¹ s⁻¹
- kchem (kinetic rate constant for reactivity with GSH) [3]: < 0.8 M⁻¹ s⁻¹

Structure (SMILES): O=C1C2(CCCCC13OC3c1ccccc1)OC2c1ccccc1 (stereo not shown) [DEK 11]
- pIC50 LdtMt2 (LdtMt2 [4]): < 4.4
- Area (%) 15 min, assignment Unmodified LdtMt2 (LdtMt2 [1]): 100.0%
- Area (%) 24 h, assignment Unmodified LdtMt2 (LdtMt2 [1]): 100.0%
